From ChEMBL document CHEMBL1268968, “Lupane-type triterpenoids from the steamed leaves of Acanthopanax koreanum and their inhibitory effects on the LPS-stimulated pro-inflammatory cytokine production in bone marrow-derived dendritic cells” (Bioorg Med Chem Lett, 2010)

Tests used:
[1] = Antiinflammatory activity in C57BL/6 mouse BMDCs assessed as inhibition of LPS-stimulated TNFalpha production at 50 uM treated 1 hr before LPS challenge measured 18 hrs post stimulation by ELISA; assay type: functional, BMDC
[2] = Antiinflammatory activity in C57BL/6 mouse BMDCs assessed as inhibition of LPS-stimulated IL12 production at 50 uM treated 1 hr before LPS challenge measured 18 hrs post stimulation by ELISA; assay type: functional, BMDC
[3] = Toxicity in C57BL/6 mouse BMDCs at 50 uM; assay type: cell-based; settings: bmdc
[4] = Antiinflammatory activity in C57BL/6 mouse BMDCs assessed as inhibition of LPS-stimulated IL6 production at 50 uM treated 1 hr before LPS challenge measured 18 hrs post stimulation by ELISA; assay type: functional; settings: C57BL/6, BMDC

Row | Structure (SMILES) | inhibition (INH) [1] [%] | inhibition (INH) [2] [%] | Activity [3] | inhibition at 50 µM [4] [%]
1 | COC(OC)[C@H](C)[C@@H]1CC[C@]2(C(=O)O)CC[C@]3(C)[C@H](CC[C@@H]4[C@@]5(C)CC[C@@H](O)[C@@](C)(C(=O)O)[C@@H]5CC[C@]43C)[C@@H]12 | 64.7 | 94.2 | Non-toxic | 63.6
2 | C[S+]([O-])c1ccc(-c2nc(-c3ccc(F)cc3)c(-c3ccncc3)[nH]2)cc1 (centres undefined) [SB-203580] | – | 84.3 | – | –
3 | C=C(C)[C@@H]1CC[C@]2(C(=O)O[C@@H]3O[C@H](CO[C@@H]4O[C@H](CO)[C@@H](O)[C@H](O)[C@H]4O)[C@@H](O)[C@H](O)[C@H]3O)CC[C@]3(C)[C@H](CC[C@@H]4[C@@]5(C)CC[C@@H](O)[C@@](C)(C(=O)O)[C@@H]5CC[C@]43C)[C@@H]12 | – | <50 | Non-toxic | –
4 | C=C(C)[C@@H]1CC[C@]2(C(=O)O)CC[C@]3(C)[C@H](C[C@@H](O)[C@@H]4[C@@]5(C)CC[C@@H](O)[C@@](C)(CO)[C@@H]5CC[C@]43C)[C@@H]12 | – | <50 | Non-toxic | –
5 | C=C(C)[C@@H]1CC[C@]2(C(=O)O[C@@H]3O[C@H](CO[C@@H]4O[C@H](CO)[C@@H](O[C@H]5O[C@@H](C)[C@H](O)[C@@H](O)[C@H]5O)[C@H](O)[C@H]4O)[C@@H](O)[C@H](O)[C@H]3O)CC[C@]3(C)[C@H](C[C@@H](O)[C@@H]4[C@@]5(C)CC[C@@H](O)C(C)(C)[C@@H]5CC[C@]43C)C12 (some centres undefined) [ACANTRIFOSIDE A] | – | <50 | Non-toxic | –
6 | C=C(C)[C@@H]1CC[C@]2(C(=O)O[C@@H]3O[C@H](CO[C@@H]4O[C@H](CO)[C@@H](O[C@@H]5O[C@@H](C)[C@H](O)[C@@H](O)[C@H]5O)[C@H](O)[C@H]4O)[C@@H](O)[C@H](O)[C@H]3O)CC[C@]3(C)[C@H](CC[C@@H]4[C@@]5(C)CC[C@@H](O)[C@@](C)(C(=O)O)[C@@H]5CC[C@]43C)[C@@H]12 [ACANKOREOSIDE A] | – | <50 | Non-toxic | –
7 | C=C(C)[C@@H]1CC[C@]2(C(=O)O[C@@H]3O[C@H](CO[C@@H]4O[C@H](CO)[C@@H](O[C@H]5O[C@@H](C)[C@H](O)[C@@H](O)[C@H]5O)[C@H](O)[C@H]4O)[C@@H](O)[C@H](O)[C@H]3O)CC[C@]3(C)[C@H](C[C@@H](O)[C@@H]4[C@@]5(C)CC[C@@H](O)[C@@](C)(C=O)[C@@H]5CC[C@]43C)[C@@H]12 [ACANKOREOSIDE D] | – | <50 | Non-toxic | –
8 | C=C(C)[C@@H]1CC[C@]2(C(=O)O)CC[C@]3(C)[C@H](C[C@@H](O)[C@@H]4[C@@]5(C)CC[C@@H](O)C(C)(C)[C@@H]5CC[C@]43C)[C@@H]12 [IMPRESSIC ACID] | 67.9 | 62.6 | Non-toxic | –
9 | C=C(C)[C@@H]1CC[C@]2(C(=O)O)CC[C@]3(C)[C@H](CC[C@@H]4[C@@]5(C)CC[C@@H](O)[C@@](C)(C(=O)O)[C@@H]5CC[C@]43C)[C@@H]12 | – | <50 | Non-toxic | –
10 | C=C(C)[C@@H]1CC[C@]2(C(=O)O)CC[C@]3(C)[C@H](C[C@@H](O)[C@@H]4[C@@]5(C)CC[C@@H](O)[C@@](C)(C=O)[C@@H]5CC[C@]43C)[C@@H]12 | – | 57.6 | Non-toxic | –
11 | C=C(C)[C@@H]1CC[C@]2(C(=O)O)CC[C@]3(C)[C@H](C[C@@H](O)[C@@H]4[C@@]5(C)CC[C@@H](O[C@@H]6O[C@H](CO)[C@@H](O)[C@H](O)[C@H]6O)C(C)(C)[C@@H]5CC[C@]43C)[C@@H]12 | – | <50 | Non-toxic | –
